pIC50: −log10 of the molar value.
Test system: SW 1271 complex tumor spheroid viability
Assay: Anticancer human tumor SW 1271 cell line growth inhibition;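 further: spheroids exposed to agents for seven days before readout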;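 on viability, T/C: percent of DMSO vehicle control luminescence so 100% = vehicle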
Settings: for pIC50: curve of first compound; for viability, T/C: stronger effect = lower value
Outline: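 Complex tumor spheroids combined malignant cells with endothelial cells and mesenchymal stem cells. DNA-damaging drugs and DNA repair inhibitors were tested alone and in combination, at half-log dilutions down from clinical Cmax (top 10 microM if Cmax unknown), 0.25% DMSO final.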

## Cc1cc(C)c(CNC(=O)c2cc(-c3ccc(CN4CCOCC4)cc3)cc3c2cnn3C2CCCC2)c(=O)[nH]1 + Cn1nnc2c(C(N)=O)ncn2c1=O
Second compound 1 µM
  pIC50: < 5.00
Second compound 3.16 µM
  pIC50: < 5.00
Second compound 10 µM
  pIC50: < 5.00
Second compound 31.6 µM
  pIC50: < 5.00
Second compound 100 µM
  pIC50: < 5.00
Second compound 1 µM, first compound 0.0316 µM
  viability, T/C: 98.6%
Second compound 1 µM, first compound 0.1 µM
  viability, T/C: 92.6%
Second compound 1 µM, first compound 0.316 µM
  viability, T/C: 93.5%
Second compound 1 µM, first compound 1 µM
  viability, T/C: 91.5%
Second compound 1 µM, first compound 3.16 µM
  viability, T/C: 88.7%
Second compound 1 µM, first compound 10 µM
  viability, T/C: 73.1%
Second compound 3.16 µM, first compound 0.0316 µM
  viability, T/C: 93.7%
Second compound 3.16 µM, first compound 0.1 µM
  viability, T/C: 101%
Second compound 3.16 µM, first compound 0.316 µM
  viability, T/C: 95.3%
Second compound 3.16 µM, first compound 1 µM
  viability, T/C: 99.2%
Second compound 3.16 µM, first compound 3.16 µM
  viability, T/C: 83.9%
Second compound 3.16 µM, first compound 10 µM
  viability, T/C: 79.1%
Second compound 10 µM, first compound 0.0316 µM
  viability, T/C: 97.7%
Second compound 10 µM, first compound 0.1 µM
  viability, T/C: 91.7%
Second compound 10 µM, first compound 0.316 µM
  viability, T/C: 98.8%
Second compound 10 µM, first compound 1 µM
  viability, T/C: 96.7%
Second compound 10 µM, first compound 3.16 µM
  viability, T/C: 81.5%
Second compound 10 µM, first compound 10 µM
  viability, T/C: 76.2%
Second compound 31.6 µM, first compound 0.0316 µM
  viability, T/C: 106%
Second compound 31.6 µM, first compound 0.1 µM
  viability, T/C: 103%
Second compound 31.6 µM, first compound 0.316 µM
  viability, T/C: 102%
Second compound 31.6 µM, first compound 1 µM
  viability, T/C: 100%
Second compound 31.6 µM, first compound 3.16 µM
  viability, T/C: 74.5%
Second compound 31.6 µM, first compound 10 µM
  viability, T/C: 62%
Second compound 100 µM, first compound 0.0316 µM
  viability, T/C: 91.8%
Second compound 100 µM, first compound 0.1 µM
  viability, T/C: 90.4%
Second compound 100 µM, first compound 0.316 µM
  viability, T/C: 79.8%
Second compound 100 µM, first compound 1 µM
  viability, T/C: 81.7%
Second compound 100 µM, first compound 3.16 µM
  viability, T/C: 70.7%
Second compound 100 µM, first compound 10 µM
  viability, T/C: 52.7%

## [2H]c1nc(C)nc([2H])c1-c1cc(NC[C@@H](C)c2cccc3c(C(=O)NC)ccnc23)ncn1 + CC[C@@]1(O)C(=O)OCc2c1cc1n(c2=O)Cc2cc3c(CN(C)C)c(O)ccc3nc2-1
Second compound 0.003 µM
  pIC50: < 5.00
Second compound 0.00949 µM
  pIC50: 5.87
Second compound 0.03 µM
  pIC50: > 7.50
Second compound 0.0949 µM
  pIC50: > 7.50
Second compound 0.3 µM
  pIC50: > 7.50
Second compound 0.003 µM, first compound 0.0316 µM
  viability, T/C: 94.2%
Second compound 0.003 µM, first compound 0.1 µM
  viability, T/C: 90.5%
Second compound 0.003 µM, first compound 0.316 µM
  viability, T/C: 95.4%
Second compound 0.003 µM, first compound 1 µM
  viability, T/C: 94.6%
Second compound 0.003 µM, first compound 3.16 µM
  viability, T/C: 88.9%
Second compound 0.003 µM, first compound 10 µM
  viability, T/C: 79.9%
Second compound 0.00949 µM, first compound 0.0316 µM
  viability, T/C: 58.9%
Second compound 0.00949 µM, first compound 0.1 µM
  viability, T/C: 51.1%
Second compound 0.00949 µM, first compound 0.316 µM
  viability, T/C: 58.7%
Second compound 0.00949 µM, first compound 1 µM
  viability, T/C: 48.3%
Second compound 0.00949 µM, first compound 3.16 µM
  viability, T/C: 47.9%
Second compound 0.00949 µM, first compound 10 µM
  viability, T/C: 39.4%
Second compound 0.03 µM, first compound 0.0316 µM
  viability, T/C: 36.5%
Second compound 0.03 µM, first compound 0.1 µM
  viability, T/C: 35.3%
Second compound 0.03 µM, first compound 0.316 µM
  viability, T/C: 34.5%
Second compound 0.03 µM, first compound 1 µM
  viability, T/C: 36.6%
Second compound 0.03 µM, first compound 3.16 µM
  viability, T/C: 34.2%
Second compound 0.03 µM, first compound 10 µM
  viability, T/C: 31.6%
Second compound 0.0949 µM, first compound 0.0316 µM
  viability, T/C: 34%
Second compound 0.0949 µM, first compound 0.1 µM
  viability, T/C: 32.6%
Second compound 0.0949 µM, first compound 0.316 µM
  viability, T/C: 30.1%
Second compound 0.0949 µM, first compound 1 µM
  viability, T/C: 31.4%
Second compound 0.0949 µM, first compound 3.16 µM
  viability, T/C: 33.1%
Second compound 0.0949 µM, first compound 10 µM
  viability, T/C: 26%
Second compound 0.3 µM, first compound 0.0316 µM
  viability, T/C: 19.9%
Second compound 0.3 µM, first compound 0.1 µM
  viability, T/C: 17.5%
Second compound 0.3 µM, first compound 0.316 µM
  viability, T/C: 15.1%
Second compound 0.3 µM, first compound 1 µM
  viability, T/C: 17%
Second compound 0.3 µM, first compound 3.16 µM
  viability, T/C: 14.2%
Second compound 0.3 µM, first compound 10 µM
  viability, T/C: 8.53%

## Cc1sc2c(c1C)C(c1ccc(Cl)cc1)=NC(CC(=O)Nc1ccc(O)cc1)c1nnc(C)n1-2 (stereo not given) + Cn1nnc2c(C(N)=O)ncn2c1=O
Second compound 1 µM
  pIC50: 7.16
Second compound 3.16 µM
  pIC50: 7.07
Second compound 10 µM
  pIC50: 7.11
Second compound 31.6 µM
  pIC50: 7.15
Second compound 100 µM
  pIC50: 7.27
Second compound 1 µM, first compound 0.00949 µM
  viability, T/C: 118%
Second compound 1 µM, first compound 0.03 µM
  viability, T/C: 100%
Second compound 1 µM, first compound 0.0949 µM
  viability, T/C: 30.9%
Second compound 1 µM, first compound 0.3 µM
  viability, T/C: 3.27%
Second compound 1 µM, first compound 0.949 µM
  viability, T/C: 1.29%
Second compound 1 µM, first compound 3 µM
  viability, T/C: 1.13%
Second compound 3.16 µM, first compound 0.00949 µM
  viability, T/C: 107%
Second compound 3.16 µM, first compound 0.03 µM
  viability, T/C: 110%
Second compound 3.16 µM, first compound 0.0949 µM
  viability, T/C: 44.2%
Second compound 3.16 µM, first compound 0.3 µM
  viability, T/C: 2.74%
Second compound 3.16 µM, first compound 0.949 µM
  viability, T/C: 1.12%
Second compound 3.16 µM, first compound 3 µM
  viability, T/C: 1.25%
Second compound 10 µM, first compound 0.00949 µM
  viability, T/C: 116%
Second compound 10 µM, first compound 0.03 µM
  viability, T/C: 110%
Second compound 10 µM, first compound 0.0949 µM
  viability, T/C: 37.5%
Second compound 10 µM, first compound 0.3 µM
  viability, T/C: 3.68%
Second compound 10 µM, first compound 0.949 µM
  viability, T/C: 1.21%
Second compound 10 µM, first compound 3 µM
  viability, T/C: 1.48%
Second compound 31.6 µM, first compound 0.00949 µM
  viability, T/C: 104%
Second compound 31.6 µM, first compound 0.03 µM
  viability, T/C: 96.5%
Second compound 31.6 µM, first compound 0.0949 µM
  viability, T/C: 33.5%
Second compound 31.6 µM, first compound 0.3 µM
  viability, T/C: 3.27%
Second compound 31.6 µM, first compound 0.949 µM
  viability, T/C: 1.04%
Second compound 31.6 µM, first compound 3 µM
  viability, T/C: 0.93%
Second compound 100 µM, first compound 0.00949 µM
  viability, T/C: 96.8%
Second compound 100 µM, first compound 0.03 µM
  viability, T/C: 77.6%
Second compound 100 µM, first compound 0.0949 µM
  viability, T/C: 24%
Second compound 100 µM, first compound 0.3 µM
  viability, T/C: 2.27%
Second compound 100 µM, first compound 0.949 µM
  viability, T/C: 1.7%
Second compound 100 µM, first compound 3 µM
  viability, T/C: 0.96%

Reference: PubChem BioAssay AID1845215 (Molecular Pharmacology Branch, DTP, NCI, 2023)
